The target in assay [1] is T1, CETP (cholesteryl ester transfer protein) (Homo sapiens, UniProt P11597).
T1 sequence (P11597 18-493): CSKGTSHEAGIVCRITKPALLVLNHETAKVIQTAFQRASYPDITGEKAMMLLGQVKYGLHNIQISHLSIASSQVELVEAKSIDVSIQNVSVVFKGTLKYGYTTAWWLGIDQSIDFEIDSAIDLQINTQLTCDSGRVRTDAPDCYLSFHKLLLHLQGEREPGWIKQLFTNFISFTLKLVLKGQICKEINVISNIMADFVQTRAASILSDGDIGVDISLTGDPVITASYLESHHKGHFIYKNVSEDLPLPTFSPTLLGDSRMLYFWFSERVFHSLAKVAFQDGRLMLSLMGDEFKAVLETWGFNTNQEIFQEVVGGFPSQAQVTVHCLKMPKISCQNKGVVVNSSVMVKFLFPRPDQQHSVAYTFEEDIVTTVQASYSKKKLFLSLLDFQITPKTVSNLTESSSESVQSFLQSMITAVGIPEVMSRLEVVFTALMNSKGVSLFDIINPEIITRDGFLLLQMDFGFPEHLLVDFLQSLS
As to the kind of experiment: In vitro CETP activity assay in human plasma. It counts as biochemical. Details: tissue New Drug Development Research Center, Inc; host or cells: human EDTA plasma from healthy men. The text has this:
(1) Preparation of Human Pro-Apolipoprotein Al (pro-apoAl)
The cDNA of human pro-apoAl (NCBI accession number: NM_000039) is cloned from human liver Quick-Clone™ cDNA (Clontech, Calif.) and inserted to a pET28a vector (Novagen, Germany) for bacterial expression. Expressed protein as a fusion protein with 6×His-tag at N-terminus in BL-21 Gold (DE3) (Strategene, Calif.) is purified using HiTrap Chelating (GE Healthcare, Conn.).
(2) Preparation of Donor Microemulsion
Pro-apoAl containing microemulsion as a donor particle is prepared following previous reports (J. Biol. Chem., 280:14918-22). Glyceryl trioleate (62.5 ng, Sigma, Mo.), 3-sn-phosphatidylcholine (583 ng, Wako Pure Chemical Industries, Japan), and cholesteryl BODIPY® FL C12 (250 ng, Invitrogen, Calif.) are dissolved in 1 mL of chloroform. The solution is evaporated, then residual solvent is removed in vacuum for more than 1 hr. The dried lipid mixture is dissolved in 500 μL of the assay buffer (50 mM Tris-HCl (pH7.4) containing 150 mM NaCl and 2 mM EDTA) and sonicated at 50° C. with a microtip (MICROSON™ ULTRASONIC CELL DISRUPTOR, Misonix, Farmingdale, N.Y.) at output power 006 for 2 min. After sonication, the solution is cooled to 40° C., added to 100 μg of human pro-apoAl, and sonicated at output power 004 for 5 min at 40° C. The solution, BODIPY-CE microemulsion as a donor molecule is stored at 4° C. after filtration through a 0.45 μm PVDF filter.
(3) In Vitro CETP Activity Assay in Human Plasma
Human EDTA plasma samples from healthy men are purchased from New Drug Development Research Center, Inc. Donor solution is prepared by a dilution of donor microemulsion with assay buffer. Human plasma (50 μL), assay buffer (35 μL) and test compound dissolved in dimethylsulfoxide (1 μL) are added to each well of 96 well half area black flat bottom plate. The reaction is started by the addition of donor solution (14 μL) into each well. Fluorescence intensities are measured every 30 min at 37° C. with excitation wave length of 485 nm and emission wavelength of 535 nm. The CETP activity (Fl/min) is defined as the changes of fluorescence intensity from 30 to 90 min.

Assay [2] concerns the target T1, CETP (cholesteryl ester transfer protein). Description: CETP inhibitory activity, IC50 in buffer. It counts as biochemical.

This passage reports IC50 results from patent publication US8232403B2, “Bicyclic derivatives as CETP inhibitors” (Novartis AG, priority 2006, dated 2012).

A word on the IC50: it is the concentration that gives 50% inhibition.

On to `CCN(CC1CCCC1)c1nc2ccccc2cc1CN(Cc1cc(C(F)(F)F)cc(C(F)(F)F)c1)c1nnn(C)n1` [Example 1, N-[(3-{N′-[3,5-bis(trifluoromethyl)benzyl]-N′-(2-methyl-2H-tetrazol-5-yl)amino}methyl)quinolin-2-yl]-N-(cyclopentylmethyl)ethylamine], for which the IC50 in assay [1] turned out to be 0.26 µM; in assay [2], 0.16 µM.
As to `CCN(CC1CCCC1)c1nc2cc(C)ccc2cc1CN(Cc1cc(C(F)(F)F)cc(C(F)(F)F)c1)c1nnn(C)n1` [Example 2-6], the IC50 in assay [1] was found to be 0.092 µM; in assay [2], 0.028 µM.
On the same counts, the results for `CCN(CC1CCCC1)c1nc2cc(OC)ccc2cc1CN(Cc1cc(C(F)(F)F)cc(C(F)(F)F)c1)c1nnn(C)n1` [Example 2-7] are 0.075 µM and 0.044 µM.
Taken in the same sequence, the figures for `CCN(CC1CCCC1)c1nc2cc(F)c(F)cc2cc1CN(Cc1cc(C(F)(F)F)cc(C(F)(F)F)c1)c1nnn(C)n1` [Example 2-8] were 0.024 µM and 0.04 µM.
On the same counts, the results for `CCN(CC1CCCC1)c1nc2cc(F)c(F)c(F)c2cc1CN(Cc1cc(C(F)(F)F)cc(C(F)(F)F)c1)c1nnn(C)n1` [Example 2-10] are 0.037 µM and 0.036 µM.
On to `CCN(CC1CCCCC1)c1nc2ccc(F)cc2cc1CN(Cc1cc(C(F)(F)F)cc(C(F)(F)F)c1)c1nnn(C)n1` [Example 2-12], for which the IC50 in assay [1] was determined as 0.094 µM; in assay [2], 0.12 µM.
Taken in the same sequence, the figures for `CCN(CC1CCCCC1)c1nc2cc(F)ccc2cc1CN(Cc1cc(C(F)(F)F)cc(C(F)(F)F)c1)c1nnn(C)n1` [Example 2-13] were 0.082 µM and 0.032 µM.
On the same counts, the results for `CCN(CC1CCCCC1)c1nc2cc(F)c(F)cc2cc1CN(Cc1cc(C(F)(F)F)cc(C(F)(F)F)c1)c1nnn(C)n1` [Example 2-15] are 0.062 µM and 0.043 µM.
Taken in the same sequence, the figures for `CCOC(=O)C[C@H]1CC[C@H](CN(CC)c2nc3ccccc3cc2CN(Cc2cc(C(F)(F)F)cc(C(F)(F)F)c2)c2nnn(C)n2)CC1` [Example 2-17] were 0.22 µM and 0.25 µM.
With `CCN(CC1CCOCC1)c1nc2cc(F)c(F)cc2cc1CN(Cc1cc(C(F)(F)F)cc(C(F)(F)F)c1)c1nnn(C)n1` [Example 2-22], the IC50 in assay [1] turned out to be 0.03 µM; in assay [2], 0.16 µM.
On the same counts, the results for `Cn1nnc(N(Cc2cc(C(F)(F)F)cc(C(F)(F)F)c2)Cc2cc3ccc(F)cc3nc2N2CCCC2C2CCCCC2)n1` (stereo not shown) [Example 3-2] are 0.043 µM and 0.039 µM.
Taken in the same sequence, the figures for `CCC(CC)[C@H]1CCCN1c1nc2cc(F)c(F)cc2cc1CN(Cc1cc(C(F)(F)F)cc(C(F)(F)F)c1)c1nnn(C)n1` [Example 3-4] were 0.062 µM and 0.06 µM.
Taken in the same sequence, the figures for `CCOC[C@H]1CCCN1c1nc2cc(F)ccc2cc1CN(Cc1cc(C(F)(F)F)cc(C(F)(F)F)c1)c1nnn(C)n1` [Example 3-5] were 0.11 µM and 0.12 µM.
Take `CCN(CC1CCCC1)c1nc2cc(C#N)ccc2cc1CN(Cc1cc(C(F)(F)F)cc(C(F)(F)F)c1)c1nnn(C)n1` [Example 6, 3-({N-[3,5-bis(trifluoromethyl)benzyl]-N-(2-methyl-2H-tetrazol-5-yl)amino}methyl)-2-[N′-(cyclopentylmethyl)-N′-ethylamino]quinoline-7-carbonitrile]: the figures for the concentration for half-maximal inhibition (IC50) in assay [1] and in assay [2] were 0.039 µM and 0.054 µM, respectively.
As for `CCN(CC1CCCC1)c1nc2cc(F)cc(F)c2cc1CN(Cc1cc(C(F)(F)F)cc(C(F)(F)F)c1)c1ncc(N2CCOCC2)cn1` [Example 13-4], the IC50 in assay [1] was found to be 0.033 µM; in assay [2] it was 0.0058 µM.
Taken in the same sequence, the figures for `Cn1nnc(N(Cc2cc(C(F)(F)F)cc(C(F)(F)F)c2)Cc2cc3cc(F)c(F)cc3nc2N2CCC[C@@H]2[C@H]2CC[C@H](C(=O)O)CC2)n1` [Example 21, trans-4-{(R)-1-[3-({N-[3,5-bis(trifluoromethyl)benzyl]-N-(2-methyl-2H-tetrazol-5-yl)amino}methyl)-6,7-difluoroquinolin-2-yl]pyrrolidin-2-yl}cyclohexanecarboxylic acid] were 0.045 µM and 0.021 µM.
On the same counts, the results for `Cn1nnc(N(Cc2cc(C(F)(F)F)cc(C(F)(F)F)c2)Cc2cc3cc(F)c(F)cc3nc2N2CCC[C@@H]2[C@H]2CC[C@H](CC(=O)O)CC2)n1` [Example 28, trans-(4-{(R)-1-[3-({N-[3,5-bis(trifluoromethyl)benzyl]-N-(2-methyl-2H-tetrazol-5-yl)amino}methyl)-6,7-difluoroquinolin-2-yl]pyrrolidin-2-yl}cyclohexyl)acetic acid] are 0.039 µM and 0.025 µM.
